GI50 and TGI data for eight molecules are collected here from PubChem BioAssay (NCI).

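Dose response: 5 concentrations. Exposure: 48 h. Format: 96-well plates. Endpoint: linear interpolation; highest concentration if not reached. GI50 = concentration required for 50% inhibition of growth. TGI denotes the concentration required for complete inhibition of growth.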

What all share (test): NCI anticancer screen, dose series, 48 h
The test system of experiment [1] is LOX IMVI melanoma.
For experiment [2], the system named is PC-3 prostate.
The subject of experiment [3] is HCC-2998 colon.
The test system of experiment [4] is TK-10 renal.
In experiment [5] the test system is HCT-15 colon.
In experiment [6] the test system is SK-MEL-28 melanoma.
Experiment [7] has as its system MDA-MB-435.
The test system of experiment [8] is UACC-62 melanoma.
In experiment [9] the test system is KM12 colon.
In experiment [10] the test system is 786-0 renal.

For the molecule `COc1cc2cn3c4ccc(O)cc4[nH]c(=O)c3c2cc1OC`, the GI50 was 13.1 nM in experiment [1]; 0.0461 µM in [2]; 30.7 nM in experiment [3]; 0.0453 µM in experiment [4]; 0.0207 µM in experiment [5]; below 0.01 µM in experiment [6]. For the same molecule, the GI50 in experiment [7] was below 10 nM; in experiment [8] it was below 10 nM; in experiment [9] it was 0.0451 µM; in [10], 71.5 nM. Besides, the TGI in experiment [1] came out at 1.44 µM; in [2], 2.02 µM; in experiment [3], 1.61 µM; in experiment [4] it was 1.97 µM; in experiment [5], 1.35 µM; in experiment [6], 0.681 µM. In addition, the TGI is 0.0192 µM in [7], 2.33 µM in [8], 1.48 µM in experiment [9] and 2.02 µM in experiment [10].

With `Nc1nc(Cl)cc(NCCO)n1`, the TGI in experiment [1], in experiment [2], in experiment [3], in [4], in [5] and in experiment [6] was above 100 µM each time. Moreover, the TGI in experiment [7], in experiment [8], in experiment [9] and in experiment [10] was above 100 µM throughout.

In the case of `CC(=O)c1c(CBr)n([O-])c2ccccc2[n+]1=O`, the GI50 in experiment [1] was 10800 nM; in experiment [2], 15.5 µM; in [3] it was 17600 nM; in [4], 5.44 µM; in experiment [5] it was 13.6 µM; in experiment [6] it was 13 µM. Besides, the GI50 is 12500 nM in [7], 14900 nM in [8], 15 µM in experiment [9] and 5590 nM in experiment [10]. Further, the TGI amounted to 23 µM in [1]; 33.1 µM in [2]; 34.5 µM in [3]; 16.6 µM in [4]; 27.7 µM in experiment [5]; 27.7 µM in experiment [6]. Besides, the TGI in [7] was 25.6 µM; in experiment [8], 28.6 µM; in [9], 29.2 µM; in experiment [10], 17.7 µM.

As to `COc1ccc(-c2cc(-c3cccn3C)c(C#N)c(N)n2)cc1OC`, the GI50 is above 100000 nM in experiment [1]; 99 µM in experiment [2]; above 100000 nM in experiment [3]; above 100 µM in [4]; above 100 µM in experiment [5]; above 100 µM in experiment [6]. The GI50 was above 100000 nM in experiment [7], 86300 nM in experiment [8], above 100 µM in [9] and above 100000 nM in experiment [10]. For the same molecule, the TGI in experiment [1], in experiment [2], in experiment [3], in experiment [4], in experiment [5] and in [6] was above 100 µM in each case. Also, the TGI in experiment [7], in [8], in experiment [9] and in [10] was above 100 µM each time.

`CCOC(=O)N1CCN(C(=O)c2ccc(C(F)(F)F)nc2Nc2cc(Cl)ccc2C)CC1`: the GI50 in experiment [1] was 19700 nM; in experiment [2], 7.71 µM; in [3], 11600 nM; in [4], 17.4 µM; in [5], 23.1 µM; in [6], 26.1 µM. Also, the GI50 in [7] was 5860 nM; in experiment [8], 10000 nM; in [9], 11.2 µM; in [10], 41100 nM. For the same molecule, the TGI is above 100 µM in [1]; above 100 µM in [2]; 30.1 µM in experiment [3]; 88.9 µM in experiment [4]; above 100 µM in experiment [5]; 96 µM in experiment [6]. Also, the TGI is 26.7 µM in [7], 25.6 µM in experiment [8], 31.2 µM in experiment [9] and above 100 µM in experiment [10].

As for `C#CC(=O)Nc1cccc(Nc2nc3c(c(NCc4ccccc4)n2)CCCC3)c1`, the GI50 in [1] was below 10 nM; in experiment [2] it was below 0.01 µM; in [3], 1360 nM; in experiment [4] it was 1.49 µM; in experiment [5], 0.231 µM; in [6], 1.49 µM. Also, the GI50 in experiment [7] is 1020 nM; in experiment [8], 85.1 nM; in experiment [9], 0.0225 µM; in [10], below 10 nM. The TGI in [1] was below 0.01 µM; in experiment [2], 0.0344 µM; in [3] it was 2.9 µM; in [4], 2.85 µM; in experiment [5], 1.14 µM; in experiment [6], 2.97 µM. In addition, the TGI is 2.24 µM in [7], 0.279 µM in experiment [8], 0.337 µM in [9] and below 0.01 µM in experiment [10].

Consider `O=C(CN(C1CCCCC1)C1CCCCC1)Nc1ccc(S(=O)(=O)c2ccc(NC(=O)CN(C3CCCCC3)C3CCCCC3)cc2)cc1`, for which the GI50 in experiment [1] was 239 nM; in experiment [2] it was 0.985 µM; in experiment [3] it was 1700 nM; in experiment [4], 2.24 µM; in experiment [5] it was 0.181 µM; in experiment [6], 1.21 µM. In addition, the GI50 in experiment [7] is 873 nM; in experiment [8], 595 nM; in experiment [9], 0.585 µM; in [10] it was 941 nM. In addition, the TGI in experiment [1] amounted to 0.845 µM; in experiment [2], 2.35 µM; in experiment [3], 3.22 µM; in experiment [4], 6.03 µM; in [5], 0.568 µM; in [6], 2.82 µM. Further, the TGI in experiment [7] amounted to 2.35 µM; in experiment [8], 2.05 µM; in experiment [9], 2.05 µM; in [10] it was 2.39 µM.

With `CCN(CC)CCNCC(=O)Oc1ccc(/C=C/C(=O)CC(=O)/C=C/c2ccc(OC(=O)CNCCN(CC)CC)c(OC)c2)cc1OC`, the GI50 in [1] is 2130 nM; in [2], 4.69 µM; in experiment [3], 2100 nM; in experiment [4] it was 6.72 µM; in experiment [5], 3.68 µM; in [6], 4.16 µM. Besides, the GI50 in experiment [7] is 2480 nM; in [8] it was 2730 nM; in experiment [9], 3.5 µM; in experiment [10], 2380 nM. Further, the TGI in [1] was 4.71 µM; in experiment [2], above 100 µM; in experiment [3] it was 4.36 µM; in [4], 23.5 µM; in experiment [5], 15.3 µM; in experiment [6] it was 46.2 µM. Also, the TGI in [7] amounted to 12.4 µM; in experiment [8] it was 7.8 µM; in experiment [9], 31.6 µM; in [10], 5.93 µM.
